# Source: patent US10584317B2 (priority 2006, dated 2020)
# “Also recorded” adds a separate entry of the source. Like-named read-outs stand apart in the source and are kept apart here.
# Assays:
# [1] = system: GLV-1h68; type: cell-based, vaccinia virus
# [2] = system: GLV-1h71; type: cell-based, vaccinia virus
# [3] = system: GLV-1h73; type: cell-based, vaccinia virus
# [4] = system: GLV-1h74; type: cell-based, vaccinia virus
# [5] = system: GI-101A tumors; settings: mouse, in vivo
# [6] = system: GI-101A tumors; parameters: species or system nude mice; settings: mouse, in vivo
# [7] = system: PANC-1 tumors; type: in vivo, nude mice
# [8] = system: A549 tumors; parameters: species or system nude mice; settings: mouse, in vivo
# [9] = system: PANC-1 tumors; parameters: species or system nude mice; settings: mouse, in vivo
smiles,measurement,setting,value
Nc1ccn(C[C@@H](CO)OCP(=O)(O)O)c(=O)n1 [cidofovir],Plaque formation by GLV-1h68,[1],smaller plaques; also recorded: almost completely inhibited
same,Size or number of plaques of GLV-1h68 vs control,[1],no significant differences
same,Plaque formation by GLV-1h71,[2],smaller plaques; also recorded: almost completely inhibited
same,Size or number of plaques of GLV-1h71 vs control,[2],no significant differences
same,Number and size of plaques of GLV-1h73,[3],significantly reduced
same,Plaque formation by GLV-1h73,[3],smaller plaques
same,Size or number of plaques of GLV-1h73 vs control,[3],no significant differences
same,Number and size of plaques of GLV-1h74,[4],significantly reduced
same,Plaque formation by GLV-1h74,[4],smaller plaques
same,Size or number of plaques of GLV-1h74 vs control,[4],no significant differences
same,Interference with tumor therapy by the virus,[5],did not significantly interfere
same,Survival time of GLV-1h74 injected mice,[5],significantly extended
"N.N.[Cl][Pt][Cl] [Cisplatin, cis-diamminedichloroplatinum]",Effect on tumor growth,[6],"decreased the rate of tumor growth, but did not shrink tumors"
same,Effect on tumor growth,[7]; PANC-1,unable to arrest tumor growth
same,Median tumor volume,[7]; day 36 post-implantation,170.2 mm^3
same,Median tumor volume,[7]; day 46,296.6 mm^3
same,Median tumor volume,[7]; day 52,254.95 mm^3
same,Median tumor volume,[7]; day 57,326.2 mm^3
same,Median tumor volume,[7]; day 63,460.3 mm^3
same,Median tumor volume,[7]; day 72,663.4 mm^3
same,Median tumor volume,[7]; day 79,1022.0 mm^3
same,Median tumor volume,[7]; day 86,1718.3 mm^3
same,Median tumor volume,[7]; day 94,2520.4 mm^3
same,Median tumor volume,[7]; day 100,3254.1 mm^3
"COc1cccc2c1C(=O)c1c(O)c3c(c(O)c1C2=O)C[C@@](O)(C(=O)CO)C[C@@H]3O[C@H]1C[C@H](N)[C@H](O)[C@H](C)O1 [Doxorubicin, doxorubicin]",Effect on tumor growth,[6],did not have any effect on the rate of tumor growth
Nc1ccn([C@@H]2O[C@H](CO)[C@@H](O)C2(F)F)c(=O)n1 [Gemcitabine],Effect on tumor growth,[8],increased tumor growth
same,Effect on tumor growth,[9],moderately decreased tumor growth
